The values that follow come from patent US12630509B2, “Heterocyclic NMDA antagonists” (TAKEDA PHARMACEUTICAL COMPANY LIMITED, priority 2019, dated 2026).

For experiment [1] the following is noted: continuous intravenous administration; cited from earlier work.
The conditions of experiment [2]: rodents; cited from earlier work.
Experiment [3] concerns the target NMDA receptor composed of four subunits including two sets of heterodimers of NR1 and NR2B (GRIN1/GRIN2B) expressed in HEK 293 cells (Homo sapiens, UniProt Q13224). As to the kind of experiment: NR2B Ca2+ influx assay. Type of experiment: cell-based. The note with it: HEK293, final concentration 10 μM; glutamic acid and glycine induced Ca2+ influx, HEK 293 cells expressing human GRIN1 and GRIN2B; read-out: % inhibited(10 μM). Here is the method: The HEK 293 cells that express GRIN1 and GRIN2B were purchased from ChanTest (human NMDA (NR1/NR2B) receptor-expressing, stable replicating cell line (HEK 293) catalog no. CT6121).
Intracellular calcium-ion (Ca^2+) influx caused by glycine and glutamic acid respectively binding to NR1 and NR2B was used as an index of NMDA receptor activation.
The HEK 293 cells expressing GRIN1 and GRIN2B were cultured in a cell culture flask in an incubator (37° C., in 5% CO2) using a DMEM/F-12 (Cosmo Bio, 10-092-CM) medium supplemented with 10% FBS (fetal bovine serum, AusGene), 100 units/mL penicillin, 100 μg/mL streptomycin, 500 μg/mL neomycin, 100 μg/mL Zeocin (registered trademark of Invitrogen), and 5 μg/mL blasticidin.
On the day before the assay, the cells were detached from the flask by trypsinization, suspended in a seeding medium (DMEM (Invitrogen, 31053) supplemented with 10% FBS, 100 units/mL penicillin, and 100 μg/mL streptomycin) so as to be 8×10^5 cells/mL, seeded at 25 μL per well in a 384-well plate (Falcon, 356663) so as to be 20,000 cells/well, and cultured overnight using the incubator. On the day of the assay, tetracycline (Wako Pure Chemical, 209-16561) was diluted with the seeding medium at 2 μg/mL, and added at 25 μL/well to the plate into which the cells were seeded, and this was cultured for 2 hours in the incubator. Afterward, the medium was removed and washed with an assay buffer (137 mM NaCl, 4 mM KCl, 1.8 mM CaCl2), 10 mM HEPES (pH 7.2), 10 mM glucose, 0.1% BSA) at 50 μL/well. Next, a loading buffer (buffer wherein 2.5 μM Fluo-4 AM, 2 mM amaranth, and 1 mM tartrazine are added to the assay buffer) was added at 25 μL/well, and this was incubated in the incubator for 30 minutes and for 15 minutes at room temperature. Solutions wherein the Example compounds were diluted with the above-mentioned assay buffer so as to be 30 μM (final concentration 10 μM) were added at 25 μL/well, and these were left standing for 15 minutes at room temperature. Using FDSS7000EX/μCELL (Hamamatsu Photonics), an assay buffer including 30 μM glutamic acid and 30 μM glycine was added at 25 μL/well, and a fluorescence signal of an Excitation wavelength of 480 nm and an Emission wavelength of 540 nm was measured every 3 seconds for 5 minutes. The inhibitory activity was calculated as a relative activity value (inhibitory rate) wherein relative to an integrated value of florescence values of each well, an integrated value of fluorescence values of a well into which an assay buffer without glutamic acid and glycine was defined as 100% inhibition.

For experiment [4], the system named is NMDA receptor containing the NR2B subunit. As to the kind of experiment: [3H]MK-801 binding test in vivo. On the set-up: species or system Sprague Dawley rats. As to conditions: [3H]MK-801 binding inhibitory rate in rat hippocampus, vehicle control 100%, excess MK-801 maleate 0%. Here is the method: In order to confirm that compounds of the present disclosure exert functional antagonistic action on an NMDA receptor containing the NR2B subunit in vivo, a binding test was performed using tritium-labeled form of MK-801 ((5R,10S)-5-methyl-10,11-dihydro-5H-5,10-epiminodibenzo[a,d][7]annulene) ([3H]MK-801), which is a compound capable of binding to the opening site of the NMDA receptor.
The example compound (3 mg/kg/2 mL, 0.5% MC water) or vehicle (0.5% MC water 2 ml) was orally administered (p.o.) to Sprague Dawley rats (body weight 180-260 g). After a certain time (around after time-to maximum blood concentration), [3H]MK-801 (20 μCi/kg/mL, Muromachi Kikai) was intravenously administered. After 10 min, the rats were euthanized by decapitation, and subjected to craniotomy, and the hippocampus was collected. The collected hippocampus was homogenized in 30 volumes (30 mL per 1 g tissue) ice-cooled 20 mM HEPES (pH7.5, Hampton Research) using a homogenizer (T10 basic Ultra-Turrax) for 10 sec. […] The filter was washed four times with ice-cooled saline (5 mL, Otsuka Pharmaceutical), put into a scintillation vial, and then 10 mL of liquid scintillator A (FUJIFILM Wako Pure Chemical Corporation) was added thereto, and the residual radioactivity was counted using liquid scintillation counter (ALOKA LSC-6100).
Separately, the residual radioactivity in 100 μL of the homogenate before the filtration was counted in the same way. The value of [the residual radioactivity in the filter/the residual radioactivity in the 100 μL of the homogenate] was calculated as a [3H]MK-801 binding rate to the NMDA receptor expressing in each individual hippocampus tissue. […] The difference between the percentage of [^3H]MK-801 binding rate in the group orally administered with the example compound and that in the vehicle control group (100%) was analyzed as [^3H]MK-801 binding inhibitory rate by the example compound.

For experiment [5] the following is noted: in vivo; cited from earlier work.
The conditions of experiment [6]: intravenous single administration; cited from earlier work.
The conditions of experiment [7]: in vivo; cited from earlier work. The source holds these as a separate data set.

Sequence of NMDA receptor composed of four subunits including two sets of heterodimers of NR1 and NR2B (GRIN1/GRIN2B) expressed in HEK 293 cells (Q13224 27-1484, other chains not shown): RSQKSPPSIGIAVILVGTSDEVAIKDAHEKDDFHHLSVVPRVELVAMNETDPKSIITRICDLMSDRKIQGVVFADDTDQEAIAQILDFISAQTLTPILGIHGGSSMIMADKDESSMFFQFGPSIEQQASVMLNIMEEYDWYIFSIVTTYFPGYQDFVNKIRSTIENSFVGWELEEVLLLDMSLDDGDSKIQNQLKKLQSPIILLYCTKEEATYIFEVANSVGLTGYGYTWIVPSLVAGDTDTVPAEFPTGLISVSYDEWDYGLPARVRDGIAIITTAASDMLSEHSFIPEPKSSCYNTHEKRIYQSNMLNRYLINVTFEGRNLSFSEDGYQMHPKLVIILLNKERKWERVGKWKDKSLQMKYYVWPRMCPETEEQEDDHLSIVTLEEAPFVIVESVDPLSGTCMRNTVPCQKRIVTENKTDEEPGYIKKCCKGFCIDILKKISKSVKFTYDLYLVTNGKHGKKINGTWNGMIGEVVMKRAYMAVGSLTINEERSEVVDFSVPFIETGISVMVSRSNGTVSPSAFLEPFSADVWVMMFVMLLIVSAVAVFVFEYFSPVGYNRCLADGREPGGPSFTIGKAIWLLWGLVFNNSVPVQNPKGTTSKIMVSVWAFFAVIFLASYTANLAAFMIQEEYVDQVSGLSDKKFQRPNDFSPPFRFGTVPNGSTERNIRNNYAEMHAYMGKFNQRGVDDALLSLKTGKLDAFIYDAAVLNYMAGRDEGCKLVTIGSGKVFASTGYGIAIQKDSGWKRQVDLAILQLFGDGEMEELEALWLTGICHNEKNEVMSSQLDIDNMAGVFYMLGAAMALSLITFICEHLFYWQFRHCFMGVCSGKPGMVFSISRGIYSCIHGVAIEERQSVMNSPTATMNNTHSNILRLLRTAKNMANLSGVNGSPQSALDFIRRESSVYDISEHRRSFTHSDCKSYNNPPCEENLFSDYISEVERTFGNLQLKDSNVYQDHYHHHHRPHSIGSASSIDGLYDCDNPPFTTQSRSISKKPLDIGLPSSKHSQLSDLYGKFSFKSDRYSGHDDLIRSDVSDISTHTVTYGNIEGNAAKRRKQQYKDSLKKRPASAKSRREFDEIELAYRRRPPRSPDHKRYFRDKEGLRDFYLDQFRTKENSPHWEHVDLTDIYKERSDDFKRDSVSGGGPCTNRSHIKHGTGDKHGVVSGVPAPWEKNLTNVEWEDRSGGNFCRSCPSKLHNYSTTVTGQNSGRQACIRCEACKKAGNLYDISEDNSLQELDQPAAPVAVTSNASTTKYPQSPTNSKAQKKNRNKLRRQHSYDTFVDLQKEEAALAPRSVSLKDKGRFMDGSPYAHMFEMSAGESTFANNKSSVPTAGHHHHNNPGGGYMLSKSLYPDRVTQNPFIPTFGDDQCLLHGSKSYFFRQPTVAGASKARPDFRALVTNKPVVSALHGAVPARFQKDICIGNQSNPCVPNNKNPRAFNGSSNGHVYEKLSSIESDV

On to `C[C@@H]([C@@H](O)c1ccc(O)cc1)N1CCC(O)(c2ccccc2)CC1` [CP-101,606], for which the treatment-resistant depression symptoms entry in experiment [1] was “significantly improved”. For the same compound, in experiment [2], the “number of occurrences and depth of cortical spreading depression” value is “suppress the number of occurrences of and the depth of cortical spreading depression”.
As for `C[C@H]1CNC(=O)N1Cc1ccc(Oc2c(F)cc(F)cc2F)nc1` [Example 33, (5S)-5-methyl-1-{[6-(2,4,6-trifluorophenoxy)pyridin-3-yl]methyl}imidazolidin-2-one], the inhibition at 10 µM in experiment [3] was 97%.
Same read-out and setting: in the case of `C[C@H]1[C@@H](O)C(F)(F)C(=O)N1Cc1ccc(Oc2c(F)cc(F)cc2F)nc1` [Example 34, (4R,5S)-3,3-difluoro-4-hydroxy-5-methyl-1-{[6-(2,4,6-trifluorophenoxy)pyridin-3-yl]methyl}pyrrolidin-2-one] it was 97%; in that of `C[C@H]1CNC(=O)N1Cc1ccc(Oc2ccc(F)cc2F)nc1` [Example 35, (5S)-1-{[6-(2,4-difluorophenoxy)pyridin-3-yl]methyl}5-methylimidazolidin-2-one], 96%.
Consider `C[C@H]1[C@@H](O)C(F)(F)C(=O)N1Cc1ccc(Oc2ccc(F)cc2F)nc1` [Example 36, (4R,5S)-1-{[6-(2,4-difluorophenoxy)pyridin-3-yl]methyl}-3,3-difluoro-4-hydroxy-5-methylpyrrolidin-2-one], for which the inhibition at 10 µM in experiment [3] was found to be 97%.
As for `C[C@H]1[C@@H](O)CC(=O)N1Cc1ccc(Oc2ccc(F)cc2F)nc1` [Example 37, (4S,5S)-1{[-6-(2,4-difluorophenoxy)pyridin-3-yl]methyl}-4-hydroxy-5-methylpyrrolidin-2-one], the inhibition at 10 µM in experiment [3] came out at 97%.
In the case of `C[C@H]1[C@@H](O)CC(=O)N1Cc1ccc(Oc2ccc(C(F)F)cc2F)nc1` [Example 38, (4S,5S)-1-({6-[4-(difluoromethyl)-2-fluorophenoxy]pyridin-3-yl}methyl)-4-hydroxy-5-methylpyrrolidin-2-one], the inhibition at 10 µM in experiment [3] came to 95%. For the same compound, the “Inhibitory Rate (3 mg/kg, p.o.)” value in experiment [4] turned out to be 22%.
`Cc1ccc(Oc2ccc(CN3C(=O)OCC3CF)cn2)c(F)c1` (stereo not drawn) [Example 39, 4-(fluoromethyl)-3-{[6-(2-fluoro-4-methylphenoxy)pyridin-3-yl]methyl}-1,3-oxazolidin-2-one]: the inhibition at 10 µM in experiment [3] amounted to 92%.
`Cc1ccc(Oc2ccc(CN3C(=O)OCC3C(F)F)cn2)c(F)c1` (stereo not drawn) [Example 40, 4-(difluoromethyl)-3-{[6-(2-fluoro-4-methylphenoxy)pyridin-3-yl]methyl}-1,3-oxazolidin-2-one]: the inhibition at 10 µM in experiment [3] turned out to be 95%.
Still for that read-out and setting: the result for `C[C@H]1[C@@H](O)CC(=O)N1Cc1ccc(Oc2ccc(C(F)(F)F)cc2F)nc1` [Example 41, (4S,5S)-1-({6-[2-fluoro-4-(trifluoromethyl)phenoxy]pyridin-3-yl}methyl)-4-hydroxy-5-methylpyrrolidin-2-one] reads 95%; that for `C[C@H]1CCC(=O)N1Cc1cnc(Oc2ccc(C(F)F)cc2F)nc1` [Example 42, (5S)-1-({2-[4-(difluoromethyl)-2-fluorophenoxy]pyrimidin-5-yl}methyl)-5-methylpyrrolidin-2-one], 97%.
On the same count and under the same terms, the result for `C[C@H]1[C@@H](O)CC(=O)N1Cc1ccc(Oc2ccc(Cl)cc2F)nc1` [Example 43, (4S,5S)-1-{[6-(4-chloro-2-fluorophenoxy)pyridin-3-yl]methyl}4-hydroxy-5-methylpyrrolidin-2-one] reads 98%; that for `Cc1ccc(Oc2ncc(CN3C(=O)CC[C@@H]3C)cn2)c(F)c1` [Example 44, (5S)-1-{[2-(2-fluoro-4-methylphenoxy)pyrimidin-5-yl]methyl}-5-methylpyrrolidin-2-one], 97%.
Consider `C[C@H]1CCC(=O)N1Cc1cnc(Oc2ccc(F)cc2F)nc1` [Example 45, (5S)-1-{[2-(2,4-difluorophenoxy)pyrimidine-5-yl]methyl}-5-methylpyrrolidine-2-one], for which the inhibition at 10 µM in experiment [3] came out at 96%. Also, the “Inhibitory Rate (3 mg/kg, p.o.)” value in experiment [4] was 13%.
`C[C@H]1CCC(=O)N1Cc1cnc(Oc2ccc(Cl)cc2F)nc1` [Example 46, (5S)-1-{[2-(4-chloro-2-fluorophenoxy)pyrimidin-5-yl]methyl}-5-methylpyrrolidin-2-one]: in experiment [3], the inhibition at 10 µM amounted to 97%.
Same read-out and setting: the result for `C[C@H]1CCC(=O)N1Cc1ccc(Oc2ccc(C(F)F)cc2F)nc1` [Example 47, (5S)-1-({6-[4-(difluoromethy)-2-fluorophenoxy]pyridin-3-yl}methyl)-5-methylpyrrolidin-2-one] reads 99%.
As to `C[C@H]1CCC(=O)N1Cc1ccc(Oc2ccc(F)cc2F)nc1` [Example 48, (5S)-1-{[6-(2,4-difluorophenoxy)pyridin-3-yl]methyl}-5-methylpyrrolidin-2-one], the inhibition at 10 µM in experiment [3] was 98%.
`C[C@H]1COC(=O)N1Cc1cnc(Oc2ccc(Cl)cc2F)nc1` [Example 49, (4S)-3-{[2-(4-chloro-2-fluorophenoxy)pyrimidin-5-yl]methyl}-4-methyl-1,3-oxazolidin-2-one]: in experiment [3], the inhibition at 10 µM came to 97%. Also, the “Inhibitory Rate (3 mg/kg, p.o.)” value in experiment [4] is given as 19%.
Take `C[C@H]1COC(=O)N1Cc1ccc(Oc2ccc(C(F)F)cc2F)nc1` [Example 50, (4S)-3-({6-[4-(difluoromethyl)-2-fluorophenoxy]pyridin-3-yl}methyl)-4-methyl-1,3-oxazolidin-2-one]: the inhibition at 10 µM in experiment [3] stood at 98%.
Regarding `CC(C(O)c1ccc(O)cc1)N1CCC(Cc2ccccc2)CC1` (stereo not drawn) [Ifenprodil], the pain threshold value entry in experiment [5] is given as “increased”.
With `CNC1(c2ccccc2Cl)CCCCC1=O` (stereo not drawn) [ketamine], in experiment [6], the “depression symptoms associated with major depression and bipolar disorder” value is “rapidly and continuously improves depression symptoms”.
For `CC12CC3CC(C)(C1)CC(N)(C3)C2` [memantine], the “peripheral symptoms of dementia” value in experiment [7] is “partially ameliorated”.
Ro25-6981: the “number of occurrences and depth of cortical spreading depression” value in experiment [2] was “suppress the number of occurrences of and the depth of cortical spreading depression”.
